Experimental data as given in patent publication US20180106782A1, “HIGH THROUGHPUT CARDIOTOXICITY SCREENING PLATFORM” (The Board of Trustees of the Leland Stanford Junior …, priority 2016, published 2018).

How the values were obtained:
CMs = details: 0.1 μM isoproterenol (Butler 2015); cited from earlier work
μpatterned hiPSC-CMs [1] = test: cell movement from brightfield videos of beating μpatterned hiPSC-CMs (cross-correlation within ROI); type: cell-based, human; details: for aδ (temporal asynchronicity) / d (displacement) / VR (peak velocity of relaxation) / VC (peak velocity of contraction) / aθ (spatial asynchronicity): brightfield, single cell
Experimental: We imaged the movement of beating hiPSC-CMs and the displacement of fluorescent microbeads embedded in polyacrylamide substrates with a Zeiss Axiovert 200M inverted microscope equipped with a Zeiss Axiocam MRm CCD camera. This microscope also contained an environmental chamber (PeCon) to set temperature at 37° C. Unless otherwise noted, we acquired microscopy videos while electrically pacing hiPSC-CMs with 10 ms-wide bipolar pulses of electric-field stimulation at 10-15 V with a frequency of 1 Hz (Myopacer, lonOptix). To induce contractile changes in hiPSC-CMs, we added drugs known to affect CM contractile machinery to the culture medium. We analyzed the mechanical output of cells after adding drugs. […] We exposed single cells to concentrations of 0.1 μM and then 1 μM of isoproterenol (Sigma, Saint Louis, Mo.) to test how the contractile activity of each cell varied after adding different amounts of isoproterenol to the medium. Omecamtiv mecarbil (Adooq Bioscience, Irvine, Calif.) was also added to the cell culture medium at 10 nM or 0.1 μM to detect different variations in the contractile response of hiPSC-CMs after adding one of these concentrations. We acquired videos of single beating hiPSC-CMs imaged with differential interference contrast microscopy at frame rates higher than 30 fps for a time between 4 and 10 s. We used MATLAB (R2014b version, Mathworks) to convert pixels of each frame to microns. Zeiss files (.czi) contained information on the pixel dimensions and were imported into MATLAB using the Bioformats package. ([…] 2010) We also confirmed the software calibration with calibration slides (Electron Microscopy Sciences). For each video of a beating single cell, we selected a region of interest (ROI) around the borders of the cell and analyzed average displacements within this ROI (FIG. 1B). For this purpose, we selected a baseline frame, within all the frames of the video, which represented the relaxed state of the cell and calculated average displacement within the ROI for the remaining frames relative to the baseline frame. As noted bellow, this procedure was automated. We then calculated displacements from microscopy videos with cross-correlation approaches: digital image correlation (DIC) and particle image velocimetry (PIV) approaches. […] Cross-correlation is done between sub-blocks of the image and the highest correlation indicates the maximum likelihood that blocks match. We tested the following cross-correlation algorithms: PIVIab, ImageJ PIV (Tseng 2012) and Ncorr. PIVIab and Ncorr were written in MATLAB, while ImageJ PIV is a plugin for ImageJ (NIH). Ncorr generally performs better, but uses more computational time. (Blaber 2015) We measured two parameters of asynchronicity of contractile movement within the ROI: spatial asynchronicity (aθ) of contractile movement and temporal asynchronicity (aδ) of contractile movement. Spatial synchronicity occurs when the different regions of the cell move along the same directions and temporal synchronicity occurs when all the regions of the cell move at the same time. To calculate aθ, we first computed the direction of movement (θ) for every movement vector of different regions i inside the ROI (FIG. 1B) at each frame as defined by For the calculation of aδ, we first determined the mean offset time b between the peaks of the displacement curves of different regions i (dcurrent) in the ROI and the peaks of the mean displacement ([…] occurs within the same ROI by mean, cross-correlation between the two curves, then refined this offset result using main peaks only (FIG. 8A): […]

hiPSC-CMs = details: 1 μM isoproterenol (Yokoo 2009); cited from earlier work
μpatterned hiPSC-CMs [2] = test: movement of LifeAct-labeled myofibrils in beating μpatterned hiPSC-CMs (cross-correlation, Ncorr); type: cell-based, human; details: 1 μM and 10 nM omecamtiv mecarbil (FIG. 11)

## CC(C)NCC(O)c1ccc(O)c(O)c1 (stereo not drawn) [isoproterenol]
CMs
  inotropic and chronotropic response in CMs: positive inotropic and positive chronotropic responses
μpatterned hiPSC-CMs [1]; ISO 0.1 (μM per FIG. 4), no ISO: 0.01
  aδ (temporal asynchronicity): 0.02 s
μpatterned hiPSC-CMs [1]; ISO 0.1 (μM per FIG. 4), no ISO: 1.09
  d (displacement): 1.3 μm
μpatterned hiPSC-CMs [1]; ISO 0.1 (μM per FIG. 4), no ISO: 3.78
  VR (peak velocity of relaxation): 5.37 μm/s
μpatterned hiPSC-CMs [1]; ISO 0.1 (μM per FIG. 4), no ISO: 6.85
  VC (peak velocity of contraction): 9.3 μm/s
μpatterned hiPSC-CMs [1]; ISO 0.1 (μM per FIG. 4), no ISO: 31.4
  aθ (spatial asynchronicity): 75.5 °
μpatterned hiPSC-CMs [1]; ISO 1 (μM per FIG. 4), no ISO: 0.01
  aδ (temporal asynchronicity): 0.02 s
μpatterned hiPSC-CMs [1]; ISO 1 (μM per FIG. 4), no ISO: 1.09
  d (displacement): 0.68 μm
μpatterned hiPSC-CMs [1]; ISO 1 (μM per FIG. 4), no ISO: 3.78
  VR (peak velocity of relaxation): 3.65 μm/s
μpatterned hiPSC-CMs [1]; ISO 1 (μM per FIG. 4), no ISO: 6.85
  VC (peak velocity of contraction): 5.34 μm/s
μpatterned hiPSC-CMs [1]; ISO 1 (μM per FIG. 4), no ISO: 31.4
  aθ (spatial asynchronicity): 25.3 °
μpatterned hiPSC-CMs [1]; six cells, 0.1 and 1 μM isoproterenol (FIG. 9)
  variations of d, VC, VR, t̂ from brightfield videos between isoproterenol concentrations: did not yield differences in variations of parameters with statistical significance
hiPSC-CMs
  beat rate: increase
  mechanical output: decrease

## COC(=O)N1CCN(Cc2cccc(NC(=O)Nc3ccc(C)nc3)c2F)CC1 [omecamtiv mecarbil]
μpatterned hiPSC-CMs [1]; 0.1 μM omecamtiv mecarbil, single cell (FIG. 6H)
  acute dmax from brightfield videos: considerable acute increase
μpatterned hiPSC-CMs [1]; 0.1 μM omecamtiv mecarbil, single cell (FIG. 6I)
  absolute values of VC and VR from brightfield videos, acute: increase
μpatterned hiPSC-CMs [1]; OM 0.1 μM (FIG. 6), row 'acute', no OM: 0.03
  aδ (temporal asynchronicity): 0.21 s
μpatterned hiPSC-CMs [1]; OM 0.1 μM (FIG. 6), row 'acute', no OM: 0.79
  d (displacement): 0.18 μm
μpatterned hiPSC-CMs [1]; OM 0.1 μM (FIG. 6), row 'acute', no OM: 2.87
  VR (peak velocity of relaxation): 0.54 μm/s
μpatterned hiPSC-CMs [1]; OM 0.1 μM (FIG. 6), row 'acute', no OM: 3.53
  VC (peak velocity of contraction): 0.71 μm/s
μpatterned hiPSC-CMs [1]; OM 0.1 μM (FIG. 6), row 'acute', no OM: 44.5
  aθ (spatial asynchronicity): 70.1 °
μpatterned hiPSC-CMs [1]; OM 0.1 μM (FIG. 6), row 'chronic', no OM: 0.03
  aδ (temporal asynchronicity): 0.04 s
μpatterned hiPSC-CMs [1]; OM 0.1 μM (FIG. 6), row 'chronic', no OM: 0.79
  d (displacement): 1.05 μm
μpatterned hiPSC-CMs [1]; OM 0.1 μM (FIG. 6), row 'chronic', no OM: 2.87
  VR (peak velocity of relaxation): 3.42 μm/s
μpatterned hiPSC-CMs [1]; OM 0.1 μM (FIG. 6), row 'chronic', no OM: 3.53
  VC (peak velocity of contraction): 4.35 μm/s
μpatterned hiPSC-CMs [1]; OM 0.1 μM (FIG. 6), row 'chronic', no OM: 44.5
  aθ (spatial asynchronicity): 68.8 °
μpatterned hiPSC-CMs [2]
  myofibril damage at other concentrations: Such level of damage was also observed
